Measurements published in ChEMBL document CHEMBL1150168, “Scabrolides A-D, four new norditerpenoids isolated from the soft coral Sinularia scabra” (2002).
In brackets after ≈: the same amount, converted by molar mass.

What was measured:
[1] = tested on: KB; experiment: Cytotoxicity against human KB cells by MTT assay; format: functional; settings: read-out: ED50 (the source's name)
[2] = Cytotoxicity against human HEPA 59T/VGH cells by MTT assay; format: functional; settings: read-out: ED50 (the source's name)

SMILES	EC50 [1] [µg/mL]	EC50 [2] [µg/mL]
C=C(C)[C@@H]1CC(=O)[C@H]2[C@H](C1)[C@@H]1C(=O)O[C@@H]3C[C@@]4(C)O[C@@H]2C(=O)[C@@H]4[C@H]13	> 20	> 20
C=C(C)[C@H]1C/C=C2\C(=O)O[C@H](C[C@@]3(C)CC(=O)[C@@H](CC(=O)C1)O3)[C@H]2O	2.3 (≈ 6.6 µM)	2.4 (≈ 6.89 µM)
C=C(C)[C@H]1C/C=C2\C(=O)O[C@H](C[C@@]3(C)CC(=O)[C@@H](CC(=O)C1)O3)[C@@H]2O	2.5 (≈ 7.18 µM)	2.6 (≈ 7.46 µM)
COc1cccc2c1C(=O)c1c(O)c3c(c(O)c1C2=O)C[C@@](O)(C(=O)CO)C[C@@H]3O[C@H]1C[C@H](N)[C@H](O)[C@H](C)O1 [DOXORUBICIN]	0.3 (≈ 0.552 µM)	0.3 (≈ 0.552 µM)
C=C(C)[C@H]1C/C=C(\C(=O)OC)CC(=O)C[C@@]2(C)CC(=O)[C@@H](CC(=O)C1)O2 [NORCEMBRENE 5]	> 20	17.5 (≈ 48.3 µM)
C=C(C)[C@@H]1CC(=O)CC2=C(C1)[C@@H]1C(=O)O[C@@H]3C[C@](C)(O)[C@H](C2=O)[C@H]13 [SCABROLIDE A]	> 20	> 20
C=C(C)[C@@H]1CC(=O)C[C@@H]2O[C@](C)(CC2=O)C[C@@H]2C=C(C(=O)O2)[C@@H](OC)C1 [SCABROLIDE C]	11.9 (≈ 32.8 µM)	17.8 (≈ 49.1 µM)
C=C(C)[C@H]1CC[C@]23O[C@H]2[C@@H](C[C@@]2(C)CC(=O)[C@H](CC(=O)C1)O2)OC3=O [SCABROLIDE D]	> 20	> 20
